Among the test systems are MDA-N; DMS-114; DMS-273; XF498; LXFL 529; HOP-18; BT-549; 786-0; RXF 631.
What all share (assay): growth of human tumour cells (NCI), 48 h

SMILES strings stand for the structures.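 All cell lines were grown in 96-well plates and treated with compound for 48 hours. Here, GI50 denotes the concentration required for 50% inhibition of growth.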 Activity calls are given as the source filed them. Rule as the data show it: active = GI50 up to about 1.1 µM and inactive = higher. Where only a bound is given, the exact number is not on record here.

As to `Nc1n[nH]c(Nc2ccc(Cl)cc2)c1P(=O)(c1ccccc1)c1ccccc1`, in the assay on MDA-N, the GI50 was 11 µM (inactive).
Regarding `Nc1nc(SCCC/C=C/I)nc2c1ncn2C1OC(COP(=O)(O)O)C(O)C1O` (stereo not given), the GI50 in the assay with DMS-114, in the assay on DMS-273, in the assay with XF498 and with LXFL 529 was > 100 µM (inactive) each time.
On to `CCCCCOc1ccc(/C=N\c2ccc(CCc3ccc(/N=C/c4ccc(OCCCCC)cc4)cc3)cc2)cc1`, for which the GI50 in the assay on DMS-114, in the assay with DMS-273, in the assay on XF498 and with HOP-18 was > 100 µM (inactive) throughout.
Consider `Cn1c(=O)c2nc(NCCO)cnc2n(C)c1=O`, for which the GI50 with DMS-114 is 64.1 µM (inactive); in the assay on DMS-273, 53.6 µM (inactive); with XF498, 38.9 µM (inactive); in the assay on LXFL 529, 36.5 µM (inactive).
Consider `Brc1ccc2c(c1)[C@H]1CCc3c([nH]c4ccccc34)[C@H]1N2`, for which the GI50 in the assay on BT-549 was 18.4 µM (inactive); in the assay on MDA-N, 14.9 µM (inactive).
`C[N+]1([O-])[C@H]2CC(OC(=O)[C@H](CO)c3ccccc3)C[C@H]1[C@H]1O[C@H]12` (stereo not given in full): the GI50 with 786-0, in the assay on BT-549 and in the assay on MDA-N was > 100 µM (inactive) throughout.
Take `COC(=O)/C=C\n1ncc(=O)[nH]c1=O`: the GI50 with BT-549 and with MDA-N was > 100 µM (inactive) in each case.
Regarding `C=C(C)C1Cc2c(c3ccccc3n(C)c2=O)O1` (stereo not given), the GI50 with DMS-114, in the assay with RXF 631, with LXFL 529 and in the assay with HOP-18 was > 100 µM (inactive) each time.
For `CC(=O)Nc1ccc(Sc2nnc(NC(C)=O)s2)cc1`, the GI50 in the assay with MDA-N is > 100 µM (inactive).
Consider `CCOC(=O)c1csc(NC(=O)CN2CCN(c3ccccc3)CC2)n1`, for which the GI50 in the assay on MDA-N is > 100 µM (inactive).
For the compound `N#CCCN(CCC#N)c1ccc(/C=C(/NC(=O)Nc2ccccc2Cl)NC(=O)c2cc([N+](=O)[O-])ccc2Cl)cc1`, the GI50 with DMS-114, in the assay on RXF 631, in the assay with DMS-273, with XF498, in the assay on LXFL 529 and with HOP-18 was > 100 µM (inactive) in each case.
Consider `CN(C)CCCNC(=O)N/N=C\c1cccc2ccccc12`, for which, in the assay on MDA-N, the GI50 was > 10 µM (inactive).
Same read-out and setting: next, `c1ccc2c(CCNC3=NCCO3)cccc2c1`: > 10 µM (inactive).
Consider `CN(C)CCNC(=O)c1cccc2c(=O)c3ccccc3oc12`, for which the GI50 is 28.1 µM (inactive) with DMS-114, 28.8 µM (inactive) in the assay with DMS-273, 31.3 µM (inactive) in the assay on XF498 and 48 µM (inactive) in the assay on HOP-18.
In the case of `O=C(Nc1ccccc1)N1CCN(C(=O)Nc2ccccc2)C1=S`, the GI50 is 37 µM (inactive) with 786-0, 30.4 µM (inactive) in the assay with BT-549 and > 100 µM (inactive) in the assay on MDA-N.
For the compound `COc1cc(C2c3cc4c(cc3[C@@H](Nc3ccccc3)C3COC(=O)[C@H]23)OCO4)cc(OC)c1O` (stereo not given in full), the GI50 in the assay with DMS-114 was 0.687 µM (active); in the assay with DMS-273, 0.142 µM (active); in the assay on XF498, 1.03 µM (active); in the assay with HOP-18, 0.853 µM (active).

The values above are taken from ChEMBL document CHEMBL1201862, “PubChem BioAssay data set” (2004).
